Experimental findings from PubChem BioAssay AID1996 are described below.

≈ marks a conversion by molar mass, not a printed value. Where only a bound is given, the exact number is not on record here.

The conditions of this series: buffer; pH 7.4; 200.0 µM.
Turning to `CC1=CC(=C(C#N)C#N)c2ccccc2N1C`, the kinetic solubility stood at 2.7 µg/mL (≈ 12.2 µM).

`CC(C)CCc1noc(CN(CC2CCC2)CC2CCCO2)n1` (configuration not stated) registered a kinetic solubility of 11.9 µg/mL (≈ 37 µM).

Molecule `C[C@@H](C(=O)N1CCN(c2ccccc2)CC1)N1C(=O)C2CC=CCC2C1=O` (some centres not stated) displayed a solubility (kinetic) greater than 55.1 µg/mL.

Consider `O=c1[nH]c(CN2CCOCC2)nc2scc(-c3ccccc3)c12`, for which the kinetic solubility amounted to 23.9 µg/mL (≈ 73 µM).

The molecule `Cc1ccc2nc(Br)c3c(c2c1)OC(CBr)C3` (configuration not stated) had a kinetic solubility of 9.7 µg/mL (≈ 27.2 µM).

In turn, `COc1ccccc1NS(=O)(=O)c1ccc(C(=O)NCC(c2cccs2)N2CCOCC2)cc1` (configuration not stated) yielded a solubility (kinetic) of 20 µg/mL (≈ 39.9 µM).

`CN(c1ccccc1)S(=O)(=O)c1cccc(NC(=O)CCNC(=O)c2ccc([N+](=O)[O-])cc2)c1` had a kinetic solubility of 13 µg/mL (≈ 26.9 µM).

In turn, `CCN(CCO)c1ccc(N=Cc2c(O)n(C)c(=S)[nH]c2=O)cc1` gave a kinetic solubility of 3.2 µg/mL (≈ 9.18 µM).

Turning to `Cc1ccc(C(=O)OCC(=O)N(C)c2ccccc2)c(C)c1`, the kinetic solubility is greater than 44.6 µg/mL.

In turn, `NC(=O)CN(C/C=C/c1ccccc1)C/C=C/c1ccccc1` showed a kinetic solubility of 7.4 µg/mL (≈ 24.2 µM).

Molecule `Cc1ccc(NC(=O)CSc2ccc3c(c2)OCCO3)nc1` returned a kinetic solubility greater than 47.5 µg/mL.

The molecule `Cc1cc(S(=O)(=O)Nc2nc(CN3CCOCC3)nc3sc4c(c23)CCC4)ccc1F` showed a kinetic solubility of 67.4 µg/mL (≈ 146 µM).

Regarding `Cc1ccc(CCC(=O)Nc2ccc(Cl)cc2)o1`, the solubility (kinetic) was found to be 23.9 µg/mL (≈ 90.6 µM).

As to `C[C@@H]1C(NC(=O)c2ccccc2)CC2CC1C2(C)C` (some centres not stated), the solubility (kinetic) worked out at 6.4 µg/mL (≈ 24.9 µM).

`OCC1CCCCN1C(=S)Nc1cccc(Cl)c1` (configuration not stated) registered a solubility (kinetic) greater than 42.7 µg/mL.

Consider `CC(=O)Nc1ccc(OCCC[n+]2ccccc2)cc1.[Cl-]`, for which the kinetic solubility was greater than 46 µg/mL.

For the molecule `CC(=O)Nc1cccc(OCC(=O)NCCC2=CCCCC2)c1`, the kinetic solubility was greater than 47.5 µg/mL.

The molecule `CC(=O)NCCc1nc2ccccc2n1Cc1cc(C)ccc1C` returned a kinetic solubility greater than 48.2 µg/mL.

Consider `CC(=O)Oc1ccc(C(=O)NCc2ccc3c(c2)OCO3)cc1`, for which the kinetic solubility is 29.1 µg/mL (≈ 92.9 µM).

Molecule `Nc1ccccc1Nc1c(F)c(F)nc(F)c1Cl` yielded a kinetic solubility of 37.6 µg/mL (≈ 137 µM).

Turning to `CN1CCN(C(=O)c2cc3ccccc3cc2O)CC1`, the solubility (kinetic) was greater than 40.5 µg/mL.

Take `CCC(=O)Nc1cc(C(=O)O)ccc1Sc1ccc(C)cc1`: the kinetic solubility amounted to 38.8 µg/mL (≈ 123 µM).

Turning to `COc1ccc(C(=S)N2CCCC2)cc1Br`, the solubility (kinetic) is greater than 45 µg/mL.

Take `CCCCn1c(=O)[nH]c(=O)c2c1nc(-c1ccccn1)n2CC`: the solubility (kinetic) stood at 18.7 µg/mL (≈ 59.7 µM).

On to `Cc1cc(C(=O)CCC(=O)N2CCN(c3ccccc3)CC2)c(C)s1`, for which the kinetic solubility worked out at 46.5 µg/mL (≈ 130 µM).

Molecule `CC(NC1c2ccccc2-c2ccccc21)c1ccccc1` (configuration not stated) returned a kinetic solubility of less than 0.6 µg/mL.

`CCOc1ccccc1N1CN(C2CCCCC2)CNC1=S`: the solubility (kinetic) was greater than 47.9 µg/mL.

For the molecule `CCOC(=O)c1sc(-c2ccc(C(F)(F)F)cc2)nc1O`, the kinetic solubility was greater than 47.6 µg/mL.

With `CCCCN(C)Cc1c(C)[nH]c2ccccc2c1=O`, the kinetic solubility was greater than 38.8 µg/mL.

In the case of `Cc1ccc(N/C=C(\C#N)S(=O)(=O)c2ccccc2)cc1`, the solubility (kinetic) amounted to 0.7 µg/mL (≈ 2.35 µM).

Molecule `Cc1c(NC(=O)[C@@H](NC(=O)c2ccc(Cl)c([N+](=O)[O-])c2)C(C)C)c(=O)n(-c2ccccc2)n1C` gave a solubility (kinetic) greater than 72.9 µg/mL.

`O=C(c1cccc([N+](=O)[O-])c1)c1ccc2[nH]c(=O)[nH]c2c1` had a solubility (kinetic) of 8 µg/mL (≈ 28.2 µM).

Turning to `O=C(O)c1cc(S(=O)(=O)N2CCN(S(=O)(=O)c3ccc4ccccc4c3)CC2)ccc1Br`, the solubility (kinetic) was 77 µg/mL (≈ 143 µM).

On to `COc1ccc2[nH]cc(C(=O)C(=O)N3CCCCC3)c2c1`, for which the solubility (kinetic) is greater than 42.9 µg/mL.

`COc1ccccc1CNC(=O)COC(=O)Cc1cccc(F)c1` returned a solubility (kinetic) greater than 49.7 µg/mL.

`Cc1nc(N2CCOCC2)c2c3c(sc2n1)CCC3` gave a solubility (kinetic) of 34.4 µg/mL (≈ 125 µM).

In the case of `CCC(C)c1ccc(NC(=O)c2ccco2)cc1` (configuration not stated), the kinetic solubility was 24.6 µg/mL (≈ 101 µM).

The molecule `Cc1ccc(NC(=O)c2ccc(S(=O)(=O)N3CCOCC3)cc2)c(C)c1` came in with a solubility (kinetic) of 5.2 µg/mL (≈ 13.9 µM).

Molecule `CCc1ccc(-c2nc(CS(=O)CC(=O)O)c(C)o2)cc1` (configuration not stated) registered a kinetic solubility of 46 µg/mL (≈ 150 µM).

Molecule `S=C(NCc1ccccc1)NCc1ccccc1Cl` gave a kinetic solubility of 28.4 µg/mL (≈ 97.7 µM).

Molecule `COC(=O)Cn1c(=O)oc2ccc(C)cc21` showed a kinetic solubility greater than 33.2 µg/mL.

For the molecule `CCN(C(=O)COc1ccc(C(C)=O)cc1)c1cccc2ccccc12`, the solubility (kinetic) was 43.2 µg/mL (≈ 124 µM).

The molecule `Cc1ccc(SC(C)C(=O)NCc2ccc(F)cc2)cc1` (configuration not stated) returned a kinetic solubility of 8.2 µg/mL (≈ 27 µM).

Regarding `CC(C)[C@H](NS(=O)(=O)c1ccccc1)C(=O)Nc1ccccc1N1CCOCC1`, the kinetic solubility came out at 52.1 µg/mL (≈ 125 µM).

The molecule `COc1ccc(C(=O)Nc2ccccc2NC(=O)c2ccc(OC)cc2)cc1` gave a kinetic solubility of less than 0.4 µg/mL.

The molecule `CC(=O)CCn1cc([N+](=O)[O-])nc1C` registered a kinetic solubility greater than 29.6 µg/mL.

`Cc1ccc(C(=O)OC(C)CN2CCOCC2)cc1.Cl` (configuration not stated) gave a kinetic solubility of 38.9 µg/mL.

`COc1ccc(NC(=O)CSc2nc3c(c(-c4cccs4)c2C#N)CN(C)CC3)cc1OC` came in with a solubility (kinetic) of 19.9 µg/mL (≈ 41.4 µM).

`C=CCOc1cccc(/C=C\c2nc(O)c([N+](=O)[O-])c(=O)[nH]2)c1`: the solubility (kinetic) is greater than 47.3 µg/mL.

On to `O=C(O)c1ccc(C2SCC(=O)N2Cc2ccco2)cc1` (configuration not stated), for which the kinetic solubility was greater than 45.5 µg/mL.

`Cl.N=c1sccn1Cc1ccccc1F` came in with a solubility (kinetic) greater than 36.7 µg/mL.

The molecule `Cn1nc(C(F)(F)F)c2cc(C(=O)N3CCOCC3)sc21` registered a kinetic solubility greater than 47.9 µg/mL.
